# Test results taken from the supplement of paper PMC10307832.
# Key:
# Experiment in all cases: relative viability (nuclei count vs DMSO), 5 days (fraction); higher = more cells survive
# [1] = test system: NCI-H358
# Outline: (§1)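 Lung cancer cell lines were pin-tool dosed in 1536-well plates on the day after seeding, with either a lone drug or a fixed anchor-drug dose plus five library-drug doses (not always all listed) in √10 steps. Nuclei were counted on 4× images after 5 days. Relative viability is the ratio of treated-well to vehicle-well nuclei counts, with each value a median of duplicate plates.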
# [2] = test system: NCI-H838
# Outline: as §1
# [3] = test system: HCC-15
# Outline: as §1
# [4] = test system: NCI-H1993
# Outline: as §1
# [5] = test system: NCI-H2126
# Outline: as §1
# [6] = test system: LU99A
# Outline: as §1
# [7] = test system: ABC-1
# Outline: as §1
# [8] = test system: NCI-H2347
# Outline: as §1
# [9] = test system: UMC-11
# Outline: as §1
# [10] = test system: NCI-H2023
# Outline: as §1
# [11] = test system: HARA
# Outline: as §1
# [12] = test system: NCI-H1355
# Outline: as §1
# [13] = test system: NCI-H1651
# Outline: as §1
# [14] = test system: NCI-H650
# Outline: as §1
# [15] = test system: HOP-62
# Outline: as §1
# [16] = test system: COR-L23
# Outline: as §1
# [17] = test system: PC-14
# Outline: as §1
# [18] = test system: EPLC-272H
# Outline: as §1
# [19] = test system: NCI-H2085
# Outline: as §1
# [20] = test system: HCC-44
# Outline: as §1
# [21] = test system: LC-2-ad
# Outline: as §1
# [22] = test system: SW 1573
# Outline: as §1
# [23] = test system: NCI-H1915
# Outline: as §1
compound,measurement,setting,value
CCN(CC)CCCCNc1ncc2cc(-c3cc(OC)cc(OC)c3)c(NC(=O)NC(C)(C)C)nc2n1 + O=C(c1cc(Cc2n[nH]c(=O)c3ccccc23)ccc1F)N1CCN(C(=O)C2CC2)CC1 [Olaparib] (partner 8 µM),relative viability,[1]; first compound 0.01 µM,0.683
same,relative viability,[1]; first compound 0.03162 µM,0.642
same,relative viability,[1]; first compound 0.1 µM,0.744
same,relative viability,[1]; first compound 0.3162 µM,0.69
same,relative viability,[1]; first compound 1 µM,0.469
same,relative viability,[2]; first compound 0.01 µM,0.824
same,relative viability,[2]; first compound 0.03162 µM,0.835
same,relative viability,[2]; first compound 0.1 µM,0.743
same,relative viability,[2]; first compound 0.3162 µM,0.745
same,relative viability,[2]; first compound 1 µM,0.603
same,relative viability,[3]; first compound 0.01 µM,0.681
same,relative viability,[3]; first compound 0.03162 µM,0.777
same,relative viability,[3]; first compound 0.1 µM,0.783
same,relative viability,[3]; first compound 0.3162 µM,0.82
same,relative viability,[3]; first compound 1 µM,0.728
same,relative viability,[4]; first compound 0.01 µM,1.01
same,relative viability,[4]; first compound 0.03162 µM,1.01
same,relative viability,[4]; first compound 0.1 µM,1.14
same,relative viability,[4]; first compound 0.3162 µM,1.26
same,relative viability,[4]; first compound 1 µM,0.99
same,relative viability,[5]; first compound 0.01 µM,1.03
same,relative viability,[5]; first compound 0.03162 µM,0.948
same,relative viability,[5]; first compound 0.1 µM,0.976
same,relative viability,[5]; first compound 0.3162 µM,0.984
same,relative viability,[5]; first compound 1 µM,0.899
same,relative viability,[6]; first compound 0.01 µM,0.249
same,relative viability,[6]; first compound 0.03162 µM,0.288
same,relative viability,[6]; first compound 0.1 µM,0.286
same,relative viability,[6]; first compound 0.3162 µM,0.285
same,relative viability,[6]; first compound 1 µM,0.245
same,relative viability,[7]; first compound 0.03162 µM,0.754
same,relative viability,[7]; first compound 0.1 µM,1.04
same,relative viability,[7]; first compound 0.3162 µM,0.93
same,relative viability,[7]; first compound 1 µM,1.01
same,relative viability,[8]; first compound 0.01 µM,0.585
same,relative viability,[8]; first compound 0.03162 µM,0.579
same,relative viability,[8]; first compound 0.1 µM,0.617
same,relative viability,[8]; first compound 0.3162 µM,0.655
same,relative viability,[8]; first compound 1 µM,0.602
same,relative viability,[9]; first compound 0.01 µM,0.39
same,relative viability,[9]; first compound 0.03162 µM,0.372
same,relative viability,[9]; first compound 0.1 µM,0.422
same,relative viability,[9]; first compound 0.3162 µM,0.353
same,relative viability,[9]; first compound 1 µM,0.422
same,relative viability,[10]; first compound 0.01 µM,0.521
same,relative viability,[10]; first compound 0.03162 µM,0.512
same,relative viability,[10]; first compound 0.1 µM,0.668
same,relative viability,[10]; first compound 0.3162 µM,0.55
same,relative viability,[10]; first compound 1 µM,0.449
same,relative viability,[11]; first compound 0.01 µM,0.697
same,relative viability,[11]; first compound 0.03162 µM,0.62
same,relative viability,[11]; first compound 0.1 µM,0.561
same,relative viability,[11]; first compound 0.3162 µM,0.811
same,relative viability,[11]; first compound 1 µM,0.443
same,relative viability,[12]; first compound 0.01 µM,0.789
same,relative viability,[12]; first compound 0.03162 µM,0.719
same,relative viability,[12]; first compound 0.1 µM,0.853
same,relative viability,[12]; first compound 0.3162 µM,0.83
same,relative viability,[12]; first compound 1 µM,0.737
same,relative viability,[13]; first compound 0.01 µM,0.193
same,relative viability,[13]; first compound 0.03162 µM,0.192
same,relative viability,[13]; first compound 0.1 µM,0.175
same,relative viability,[13]; first compound 0.3162 µM,0.203
same,relative viability,[13]; first compound 1 µM,0.183
same,relative viability,[14]; first compound 0.01 µM,0.369
same,relative viability,[14]; first compound 0.03162 µM,0.408
same,relative viability,[14]; first compound 0.1 µM,0.41
same,relative viability,[14]; first compound 0.3162 µM,0.355
same,relative viability,[14]; first compound 1 µM,0.391
same,relative viability,[15]; first compound 0.01 µM,0.608
same,relative viability,[15]; first compound 0.03162 µM,0.523
same,relative viability,[15]; first compound 0.1 µM,0.416
same,relative viability,[15]; first compound 0.3162 µM,0.823
same,relative viability,[15]; first compound 1 µM,0.383
same,relative viability,[16]; first compound 0.01 µM,0.365
same,relative viability,[16]; first compound 0.03162 µM,0.378
same,relative viability,[16]; first compound 0.1 µM,0.368
same,relative viability,[16]; first compound 0.3162 µM,0.403
same,relative viability,[16]; first compound 1 µM,0.344
same,relative viability,[17]; first compound 0.01 µM,0.318
same,relative viability,[17]; first compound 0.03162 µM,0.341
same,relative viability,[17]; first compound 0.1 µM,0.292
same,relative viability,[17]; first compound 0.3162 µM,0.278
same,relative viability,[17]; first compound 1 µM,0.236
same,relative viability,[18]; first compound 0.01 µM,0.884
same,relative viability,[18]; first compound 0.03162 µM,0.701
same,relative viability,[18]; first compound 0.1 µM,0.647
same,relative viability,[18]; first compound 0.3162 µM,0.737
same,relative viability,[18]; first compound 1 µM,0.488
same,relative viability,[19]; first compound 0.01 µM,0.818
same,relative viability,[19]; first compound 0.03162 µM,0.81
same,relative viability,[19]; first compound 0.1 µM,0.792
same,relative viability,[19]; first compound 0.3162 µM,0.743
same,relative viability,[19]; first compound 1 µM,0.752
same,relative viability,[20]; first compound 0.01 µM,1.06
same,relative viability,[20]; first compound 0.03162 µM,1.07
same,relative viability,[20]; first compound 0.1 µM,1.03
same,relative viability,[20]; first compound 0.3162 µM,1.01
same,relative viability,[20]; first compound 1 µM,0.942
same,relative viability,[21]; first compound 0.01 µM,0.776
same,relative viability,[21]; first compound 0.03162 µM,0.744
same,relative viability,[21]; first compound 0.1 µM,0.787
same,relative viability,[21]; first compound 0.3162 µM,0.788
same,relative viability,[21]; first compound 1 µM,0.668
same,relative viability,[22]; first compound 0.01 µM,0.513
same,relative viability,[22]; first compound 0.03162 µM,0.551
same,relative viability,[22]; first compound 0.1 µM,0.613
same,relative viability,[22]; first compound 0.3162 µM,0.522
same,relative viability,[22]; first compound 1 µM,0.421
same,relative viability,[23]; first compound 0.01 µM,0.234
same,relative viability,[23]; first compound 0.03162 µM,0.291
same,relative viability,[23]; first compound 0.1 µM,0.239
same,relative viability,[23]; first compound 0.3162 µM,0.245
same,relative viability,[23]; first compound 1 µM,0.222
